Patent publication US20040138207A1, “Antitumor agents” (priority 2001, published 2004)
Several values for one entry are separate records, joined by “and”; a condition that tells them apart may be missing. Equal entries are not always repeated. Where two headings read alike, the source gives them in different places.

Experiments:
[1] = tested on: human large bowel cancer; settings: without exogenous gastrin stimulation, cited from earlier work
[2] = tested on: cancer cell proliferation; settings: group of no gastrin stimulation; cited from earlier work
[3] = tested on: human pancreatic cancer cell line BxPC-3; assay: Example 4 comparison with gemcitabine, tumor growth in BxPC-3 bearing nude mice; format: in vivo
Procedure: (§1) A total of 3×10^6 cells of a human pancreatic cancer cell line BxPC-3 was injected into the dorsal side skin of female Balb/c nude mice (6 weeks of age). When the tumor volume reached to about 110 mm^3, 60, 200 or 600 mg/kg per day of the compound A was orally administered in a similar manner to that described in Example 2, every day by dividing the daily dose into two doses per day (n=5). Also, 0.5% methylcellulose solution was administered in the same schedule to the control group. The administration period was 14 days.
(§2) As a comparative compound, a known pancreatic cancer therapeutic agent Gemcitabine (GEM) was used in the same test. GEM was intravenously administered at a dose of 60, 120 or 240 mg/kg per day, once in three days. Physiological saline was administered to the control group in the same schedule.
The tumor growth inhibition ratio was calculated by same calculation formula in Example 2.

[4] = Example 4 side effect parameters in BxPC-3 bearing nude mice; format: in vivo
Procedure: as §1, §2
The tumor growth inhibition ratio in the compound A-treated group is shown in Table 3, and that in the GEM-treated group in Table 4, together with various parameters which indicate the degree of side effects.

[5] = tested on: human pancreatic cancer cell line BxPC-3; assay: Example 1 antitumor action in BxPC-3 bearing Balb/c nude mice; format: in vivo; settings: BxPC-3, 200 mg/kg per day p.o. from day after injection, 23 days
Procedure: (§3) Three to 10×10^6 cells of human pancreatic cancer cell lines (BxPC-3 and PANC-1), human large bowel cancer cell lines (HT29 and COLO320DM) and a human gastric cancer cell line (MKN28) were injected into the dorsal side skin of female Balb/c nude mice. Starting on the next day of the subcutaneous injection of cancer cells, 200 mg/kg per day of the compound A was suspended in 0.5% methylcellulose and orally administered every day by dividing the daily dose into two doses per day. Also, 0.5% methylcellulose solution was administered in the same schedule to the control group. Using calipers, the tumor diameter was measured periodically until the next day of the final administration. The tumor volume and tumor growth inhibition ratio were calculated by the following calculation formulae.
(§4) Tumor volume (mm^3)=½×breadth (mm)^2×length (mm)
(§5) Tumor growth inhibition ratio (%)=[(tumor volume of control group—tumor volume of compound A administration group)/tumor volume of control group]×100

[6] = tested on: human pancreatic cancer cell line PANC-1; assay: Example 1 antitumor action in PANC-1 bearing Balb/c nude mice; format: in vivo; settings: PANC-1, 200 mg/kg per day p.o., 49 days
Procedure: as §3, §4, §5

[7] = tested on: human large bowel cancer cell line HT29; assay: Example 1 antitumor action in HT29 bearing Balb/c nude mice; format: in vivo; settings: HT29, 200 mg/kg per day p.o., 27 days
Procedure: as §3, §4, §5

[8] = tested on: human large bowel cancer cell line COLO320DM; assay: Example 1 antitumor action in COLO320DM bearing Balb/c nude mice; format: in vivo; settings: 200 mg/kg per day p.o., 21 days
Procedure: as §3, §4, §5

[9] = tested on: human gastric cancer cell line MKN28; assay: Example 1 antitumor action in MKN28 bearing Balb/c nude mice; format: in vivo; settings: MKN28, 200 mg/kg per day p.o., 20 days
Procedure: as §3, §4, §5

[10] = tested on: human pancreatic cancer cell BxPC-3; assay: Example 2 antitumor action in BxPC-3 cancer-bearing mice (established tumor); format: in vivo; settings: 21 days, start at about 120 mm^3
Procedure: (§6) In human pancreatic cancer cell BxPC-3 bearing mice, administration of the compound A was started when the tumor volume reached to about 120 mm^3 in a similar manner to that described in the test example 1. Its dose per day was 200 or 600 mg/kg, and the administration period was 21 days.
The tumor growth inhibition ratio was calculated by the following calculation formula.
Tumor growth inhibition ratio (%)={[(tumor volume of control group on the administration-finished day−tumor volume of control group before commencement of the administration)−(tumor volume of compound A-treated group on the administration-finished day−tumor volume of compound A-treated group before commencement of the administration)]/(tumor volume of control group on the administration-finished day−tumor volume of control group before commencement of the administration)}×100

[11] = Example 2 toxicity (body weight, side effects) in BxPC-3 cancer-bearing mice; format: in vivo
Procedure: as §6

[12] = tested on: human large bowel cancer cell COLO320DM; assay: Example 3 comparison with other gastrin/CCK-B antagonist in COLO320DM bearing mice; format: in vivo; settings: 10 days
Procedure: In human large bowel cancer cell COLO320DM bearing mice, the administration of compound A was started when the tumor volume reached to about 120 mm^3 in a similar manner to that described in the Example 2. Its dose per day was 60 or 200 mg/kg, and the administration period was 10 days. As a comparative compound, (3RS)-N-(1-(1-tert-butylcarbonylmethyl)-2,3-dihydro-2-oxo-5-(2-pyridyl)-1H-1,4-benzodiazepin-3-yl)-N′-(3-(dimethylamino)phenyl)urea whose data on inhibitory effect of pentagastrin-stimulus gastric acid secretion in a dog are disclosed as “compound of Example 38” in the aforementioned WO 93/16999 was administered in the same manner at a dose of 200 mg/kg.
The tumor growth inhibition ratio was calculated in a similar manner to that described in Example 2. The tumor growth inhibition ratio when 60 or 200 mg/kg of the compound A was administered was 20 or 27%, respectively.

[13] = tested on: gastrin-stimulated gastric acid secretion; settings: dog, 0.01 mg/kg oral administration; cited from earlier work
[14] = tested on: large bowel cancer; settings: large bowel cancer-bearing mice; cited from earlier work
[15] = daily dose of 600 mg/kg continuously for 21 days

SMILES: C[C@](Cc1c[nH]c2ccccc12)(NC(=O)OC1[C@H]2C[C@@H]3C[C@@H](C[C@H]1C3)C2)C(=O)NC[C@H](NC(=O)CCC(=O)O)c1ccccc1 (stereo partly drawn) [CI-988]
- growth inhibitory action ([1]; 25 mg/kg oral): showed a growth inhibitory action
- growth inhibitory action ([1]; 50 mg/kg oral): not found

SMILES: Cc1cccc(NC(=O)N[C@@H]2N=C(c3ccccc3)c3ccccc3N(C)C2=O)c1 [L-365260]
- inhibition of cancer cell proliferation [2]: not found

SMILES: Nc1ccn([C@@H]2O[C@H](CO)[C@@H](O)C2(F)F)c(=O)n1 [GEM, Gemcitabine, reference compound]
- Tumor growth inhibition ratio ([3]; 60 mg/kg i.v. once in three days): 22.2% and 22.2 ± 26.7%
- Tumor growth inhibition ratio ([3]; 120 mg/kg i.v. once in three days): 80.2% and 80.2 ± 20.1%
- dead cases ([4]; 240 mg/kg i.v. once in three days, n=5): 3/5 dead cases
- MTD at 14 days ([4]; female, Balb/c nude, mouse, in vivo, iv, i.v. once in three days, BxPC-3 bearing mice, read-out: MTD (maximum tolerated dose)): 120 mg/kg

SMILES: CNc1cccc(NC(=O)N[C@@H]2N=C(c3ccccn3)c3ccccc3N(CC(=O)C(C)(C)C)C2=O)c1 [compound A, (3R)-N-(1-(1-tert-butylcarbonylmethyl)-2,3-dihydro-2-oxo-5-(2-pyridyl)-1H-1,4-benzodiazepin-3-yl)-N′-(3-(methylamino)phenyl)urea]
- Tumor growth inhibition ratio [5]: 65%
- Tumor growth inhibition ratio [6]: 52%
- Tumor growth inhibition ratio [7]: 36%
- Tumor growth inhibition ratio [8]: 47%
- Tumor growth inhibition ratio [9]: 31%
- Tumor growth inhibition ratio ([10]; 200 mg/kg per day): 48%
- Tumor growth inhibition ratio ([10]; 600 mg/kg per day): 79%
- Body weight ([11]; 200 mg/kg dose group, on the 21st day): 23.8 ± 0.5 g
- Body weight ([11]; 200 mg/kg dose group, the day before commencement of administration): 22.1 ± 0.5 g
- Body weight ([11]; 600 mg/kg dose group, on the 21st day): 23.3 ± 0.7 g
- Body weight ([11]; 600 mg/kg dose group, the day before commencement of administration): 21.4 ± 0.6 g
- influence on the mouse body weight [11, 15]: did not exert influence
- side effects [11, 15]: not observed
- Tumor growth inhibition ratio ([12]; 60 mg/kg per day): 20%
- Tumor growth inhibition ratio ([12]; 200 mg/kg per day): 27%
- Tumor growth inhibition ratio ([3]; 60 mg/kg p.o. per day, 14 days): 19.3 ± 23.6%
- Tumor growth inhibition ratio ([3]; 200 mg/kg p.o. per day, 14 days): 25.1%
- Tumor growth inhibition ratio ([3]; 200 mg/kg p.o. per day, 14 days, listed as Compound A): 25.1 ± 21.1%
- Tumor growth inhibition ratio ([3]; 600 mg/kg p.o. per day, 14 days): 78.2 ± 28.3%
- inhibition of gastrin-stimulated gastric acid secretion [13]: 50%

SMILES: CN(C)c1cccc(NC(=O)NC2N=C(c3ccccn3)c3ccccc3N(CC(=O)C(C)(C)C)C2=O)c1 (racemic) [comparative compound, (3RS)-N-(1-(1-tert-butylcarbonylmethyl)-2,3-dihydro-2-oxo-5-(2-pyridyl)-1H-1,4-benzodiazepin-3-yl)-N′-(3-(dimethylamino)phenyl)urea, reference compound]
- tumor growth inhibitory action ([12]; 200 mg/kg): did not show

SMILES: CCCN(CCC)C(=O)C(CCC(=O)O)NC(=O)c1ccccc1 (stereo not drawn) [proglumide]
- antitumor effect [14]: appropriate antitumor effect
- mortality rate of mice [14]: reduced
